Assay type in all cases: cell-based
The target in test [1] is T1, hGIPR (Homo sapiens, UniProt P48546).
T1 construct: expressed in transfected cells
T1 sequence (P48546 22-466): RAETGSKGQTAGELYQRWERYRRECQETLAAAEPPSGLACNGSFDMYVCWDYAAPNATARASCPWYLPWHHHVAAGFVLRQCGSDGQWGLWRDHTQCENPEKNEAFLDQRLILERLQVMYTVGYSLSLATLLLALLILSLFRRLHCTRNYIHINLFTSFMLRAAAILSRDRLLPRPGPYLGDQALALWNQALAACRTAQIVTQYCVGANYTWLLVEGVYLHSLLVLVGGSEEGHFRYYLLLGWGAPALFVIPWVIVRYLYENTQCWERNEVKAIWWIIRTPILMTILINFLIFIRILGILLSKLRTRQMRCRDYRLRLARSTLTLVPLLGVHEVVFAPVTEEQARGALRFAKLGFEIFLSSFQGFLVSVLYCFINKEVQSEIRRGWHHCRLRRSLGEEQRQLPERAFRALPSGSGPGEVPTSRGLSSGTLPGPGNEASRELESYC
In words: Functional cAMP formation (HTRF) in HEK-293 clonal cells expressing hGIPR, 0.1% bovine casein, without or with 1.0% human serum albumin. The note with it: for EC50: cAMP, 0.1% bovine casein (no human serum albumin), geometric mean. The procedure, abridged:
(§1)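 Readings of the HTRF 665/620 nm ratio, which falls as cAMP rises, were converted to nM cAMP using a standard curve after 30 min peptide exposure at 37° C.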
A general note: Cyclic AMP is a second messenger, typically raised through Gs and lowered through Gi signalling.

Test [2] addresses T2, hGCGR (Homo sapiens, UniProt P47871).
T2 construct: expressed in transfected cells
Put plainly: Functional cAMP formation (HTRF) in HEK-293 clonal cells expressing hGCGR, 0.1% bovine casein, without or with 1.0% human serum albumin. The procedure, abridged: as §1

Test [3] has as its target hGLP-1R (Homo sapiens, UniProt P43220). In words: Functional cAMP formation (HTRF) in HEK-293 clonal cells expressing hGLP-1R, 0.1% bovine casein, without or with 1.0% human serum albumin. Set-up: expressed in transfected cells. Particulars: for EC50: cAMP; for Emax: HEK293, cAMP, percent of maximal response to GLP-1(7-36)NH2, read-out: hGLP-1R Emax, % ± SEM. The procedure, abridged: as §1

[4] abbreviates: HEK293, cAMP, 37° C., 0.1% bovine casein, percent of maximal response to GIP(1-42)NH2, arithmetic mean, read-out: hGIPR Emax, % ± SEM.
[5] abbreviates: 37° C., read-out: hGIPR EC50, nM (SEM, n).
Setting [6] is: cAMP, 37° C., 0.1% bovine casein (no human serum albumin), geometric mean, read-out: hGCGR EC50, nM (SEM, n).
The mark [7] stands for this setting: 37° C., 0.1% bovine casein, arithmetic mean.
Setting [8] is: 37° C., 0.1% bovine casein (no human serum albumin), geometric mean, read-out: hGLP-1R EC50, nM (SEM, n).

SMILES strings stand for the structures. Where two headings read alike, the source gives them in different places.

T2 sequence (P47871 26-477): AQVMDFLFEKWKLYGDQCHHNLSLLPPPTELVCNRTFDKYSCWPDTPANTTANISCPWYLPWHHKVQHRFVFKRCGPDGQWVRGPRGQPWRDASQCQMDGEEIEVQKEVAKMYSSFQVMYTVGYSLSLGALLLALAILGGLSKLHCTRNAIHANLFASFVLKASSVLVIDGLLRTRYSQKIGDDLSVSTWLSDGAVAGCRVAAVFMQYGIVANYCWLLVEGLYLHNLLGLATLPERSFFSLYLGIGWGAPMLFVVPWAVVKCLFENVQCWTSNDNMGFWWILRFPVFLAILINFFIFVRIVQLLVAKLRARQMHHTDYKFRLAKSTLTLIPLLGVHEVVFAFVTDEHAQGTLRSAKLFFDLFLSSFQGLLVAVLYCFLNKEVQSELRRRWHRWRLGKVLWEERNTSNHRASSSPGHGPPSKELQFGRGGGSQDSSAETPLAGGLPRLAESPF
Sequence of hGLP-1R (P43220 24-463): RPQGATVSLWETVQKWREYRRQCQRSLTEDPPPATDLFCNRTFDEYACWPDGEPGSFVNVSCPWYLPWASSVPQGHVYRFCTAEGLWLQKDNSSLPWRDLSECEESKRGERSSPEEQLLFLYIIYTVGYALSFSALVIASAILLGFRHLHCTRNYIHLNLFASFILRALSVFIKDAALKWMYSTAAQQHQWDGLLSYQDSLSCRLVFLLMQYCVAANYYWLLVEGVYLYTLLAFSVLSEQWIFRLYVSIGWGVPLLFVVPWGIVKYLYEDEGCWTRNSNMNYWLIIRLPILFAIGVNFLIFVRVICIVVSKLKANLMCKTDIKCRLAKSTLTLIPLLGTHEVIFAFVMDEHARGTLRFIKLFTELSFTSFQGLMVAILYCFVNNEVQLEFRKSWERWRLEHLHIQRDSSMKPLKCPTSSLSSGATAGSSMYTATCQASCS

With `CC[C@H](C)[C@H](NC(=O)[C@H](CC(C)C)NC(=O)[C@](C)(Cc1ccc(O)cc1)NC(=O)[C@@H](CCC(=O)O)NC(=O)[C@@H](NC(=O)[C@H](Cc1ccccc1)NC(=O)[C@H](CCC(=O)O)NC(=O)C(C)(C)NC(=O)[C@H](CCC(N)=O)NC(=O)[C@H](C)NC(=O)[C@H](CCCCNC(=O)COCCOCCNC(=O)COCCOCCNC(=O)CC[C@H](NC(=O)CCCCCCCCCCCCC(=O)O)C(=O)O)NC(=O)[C@H](CCCN)NC(=O)[C@H](CC(=O)O)NC(=O)[C@H](CC(C)C)NC(=O)[C@](C)(CC(C)C)NC(=O)[C@@H](NC(=O)C(C)(C)NC(=O)[C@H](Cc1ccncc1)NC(=O)[C@H](CC(=O)O)NC(=O)[C@H](CO)NC(=O)[C@@H](NC(=O)[C@](C)(Cc1ccccc1F)NC(=O)[C@@H](NC(=O)CNC(=O)[C@H](CCC(=O)O)NC(=O)C(C)(C)NC(=O)[C@@H](N)Cc1ccc(O)cc1)[C@@H](C)O)[C@@H](C)O)[C@@H](C)CC)[C@@H](C)CC)C(=O)N[C@@H](CCC(=O)O)C(=O)NCC(=O)NCC(=O)N[C@@H](CCCCNC(=O)COCCOCCNC(=O)COCCOCCNC(=O)CC[C@H](NC(=O)CCCCCCCCCCCCC(=O)O)C(=O)O)C(=O)N[C@@H](CO)C(=O)N[C@@H](CO)C(=O)NCC(=O)N[C@@H](C)C(=O)N1CCC[C@H]1C(=O)N1CCC[C@H]1C(=O)N1CCC[C@H]1C(=O)N[C@@H](CO)C(N)=O` [Example 89], the Emax came to 94.2% in test [1] (HEK293, 0.1% bovine casein and 1.0% human serum albumin, 37° C., percent of maximal response to GIP(1-42)NH2, read-out: hGIPR Emax, % ± SEM); 88.9 ± 3.76% in test [1] (HEK293, percent of maximal response to GIP(1-42)NH2, 37° C., 0.1% bovine casein, arithmetic mean, read-out: hGIPR Emax, % ± SEM). Besides, the EC50 in test [1] (incubated at 37° C., read-out: hGIPR EC50, nM (SEM, n)) was 0.0301 nM; in test [2] (0.1% bovine casein and 1.0% human serum albumin, 37° C., geometric mean, read-out: hGCGR EC50, nM (SEM, n)) it was > 9950 nM; in test [2] (cAMP, incubated at 37° C., 0.1% bovine casein (no human serum albumin), geometric mean, read-out: hGCGR EC50, nM (SEM, n)), > 9950 nM; in test [3] (incubated at 37° C., 0.1% bovine casein (no human serum albumin), geometric mean, read-out: hGLP-1R EC50, nM (SEM, n)), 1.03 nM.
On to `CC[C@H](C)[C@H](NC(=O)[C@H](CC(C)C)NC(=O)[C@](C)(Cc1ccc(O)cc1)NC(=O)[C@@H](CCC(=O)O)NC(=O)[C@@H](NC(=O)[C@H](Cc1ccccc1)NC(=O)[C@H](CCC(=O)O)NC(=O)C(C)(C)NC(=O)[C@H](CCC(N)=O)NC(=O)[C@H](C)NC(=O)[C@H](CCCCNC(=O)COCCOCCNC(=O)CC[C@H](NC(=O)CCCCCCCCCCCCC(=O)O)C(=O)O)NC(=O)[C@H](CCCN)NC(=O)[C@H](CC(=O)O)NC(=O)[C@H](CC(C)C)NC(=O)[C@](C)(CC(C)C)NC(=O)[C@@H](NC(=O)C(C)(C)NC(=O)[C@H](Cc1ccc(O)cc1)NC(=O)[C@H](CC(=O)O)NC(=O)[C@H](CO)NC(=O)[C@@H](NC(=O)[C@](C)(Cc1ccccc1F)NC(=O)[C@@H](NC(=O)CNC(=O)[C@H](CCC(=O)O)NC(=O)C(C)(C)NC(=O)[C@@H](N)Cc1ccc(O)cc1)[C@@H](C)O)[C@@H](C)O)[C@@H](C)CC)[C@@H](C)CC)C(=O)N[C@@H](CCCCNC(=O)COCCOCCNC(=O)CC[C@H](NC(=O)CCCCCCCCCCCCC(=O)O)C(=O)O)C(=O)NCC(=O)NCC(=O)N1CCC[C@H]1C(=O)N[C@@H](CO)C(=O)N[C@@H](CO)C(=O)NCC(=O)N[C@@H](C)C(=O)N1CCC[C@H]1C(=O)N1CCC[C@H]1C(=O)N1CCC[C@H]1C(=O)N[C@@H](CO)C(N)=O` [Example 367], for which the Emax in test [1] (setting [4]) is 112%; in test [3] (setting [7]), 93.9%. The 50% effective concentration (EC50) was 0.019 nM in test [1] (setting [5]), > 9950 nM in test [2] (setting [6]) and 0.366 nM in test [3] (setting [8]).
Regarding `CCCCCCCCCCCC(=O)N[C@@H](CCC(=O)NCCOCCOCC(=O)NCCCC[C@H](NC(=O)[C@H](CCCN)NC(=O)[C@H](CC(=O)O)NC(=O)[C@H](CC(C)C)NC(=O)[C@](C)(CC(C)C)NC(=O)[C@@H](NC(=O)C(C)(C)NC(=O)[C@H](Cc1ccncc1)NC(=O)[C@H](CC(=O)O)NC(=O)[C@H](CO)NC(=O)[C@@H](NC(=O)[C@](C)(Cc1ccccc1F)NC(=O)[C@@H](NC(=O)CNC(=O)[C@H](CCC(=O)O)NC(=O)C(C)(C)NC(=O)[C@@H](N)Cc1ccc(O)cc1)[C@@H](C)O)[C@@H](C)O)[C@@H](C)CC)C(=O)N[C@@H](C)C(=O)N[C@@H](CCC(N)=O)C(=O)NC(C)(C)C(=O)N[C@@H](CCC(=O)O)C(=O)N[C@@H](Cc1ccccc1)C(=O)N[C@H](C(=O)N[C@H](CCC(=O)O)C(=O)N[C@@](C)(Cc1ccc(O)cc1)C(=O)N[C@@H](CC(C)C)C(=O)N[C@H](C(=O)N[C@@H](CCCCNC(=O)COCCOCCNC(=O)CC[C@H](NC(=O)CCCCCCCCCCC)C(=O)O)C(=O)NCC(=O)NCC(=O)N1CCC[C@H]1C(=O)N[C@@H](CO)C(=O)N[C@@H](CO)C(=O)NCC(=O)N[C@@H](C)C(=O)N1CCC[C@H]1C(=O)N1CCC[C@H]1C(=O)N1CCC[C@H]1C(=O)N[C@@H](CO)C(N)=O)[C@@H](C)CC)[C@@H](C)CC)C(=O)O` [Example 427], the Emax stood at 92.4% in test [1] (HEK293, cAMP, 37° C., 0.1% bovine casein and 1.0% human serum albumin, percent of maximal response to GIP(1-42)NH2, read-out: hGIPR Emax, % ± SEM); 95.9% in test [1] (setting [4]); 109% in test [3] (37° C., 0.1% bovine casein and 1.0% human serum albumin); 109% in test [3] (setting [7]). Also, the EC50 in test [1] (setting [5]) is 0.0132 nM; in test [2] (setting [6]), > 9950 nM; in test [2] (cAMP, 37° C., 0.1% bovine casein and 1.0% human serum albumin, geometric mean (SEM, n), read-out: hGCGR EC50, nM (SEM, n)) it was > 9950 nM; in test [3] (setting [8]), 0.206 nM; in test [3] (37° C., 0.1% bovine casein and 1.0% human serum albumin, geometric mean (SEM, n), read-out: hGLP-1R EC50, nM (SEM, n)), 25.1 nM.
Consider `CC[C@H](C)[C@H](NC(=O)[C@H](CC(C)C)NC(=O)[C@](C)(Cc1ccc(O)cc1)NC(=O)[C@@H](CCC(=O)O)NC(=O)[C@@H](NC(=O)[C@H](Cc1ccccc1)NC(=O)[C@H](CCC(=O)O)NC(=O)C(C)(C)NC(=O)[C@H](CCC(N)=O)NC(=O)[C@H](C)NC(=O)[C@H](CCCCNC(=O)COCCOCCNC(=O)CC[C@H](NC(=O)CCCCCCCCCOc1ccc(C(=O)O)cc1)C(=O)O)NC(=O)[C@H](CCCN)NC(=O)[C@H](CC(=O)O)NC(=O)[C@H](CC(C)C)NC(=O)[C@](C)(CC(C)C)NC(=O)[C@@H](NC(=O)C(C)(C)NC(=O)[C@H](Cc1ccc(O)cc1)NC(=O)[C@H](CC(=O)O)NC(=O)[C@H](CO)NC(=O)[C@@H](NC(=O)[C@](C)(Cc1ccccc1F)NC(=O)[C@@H](NC(=O)CNC(=O)[C@H](CCC(=O)O)NC(=O)C(C)(C)NC(=O)[C@@H](N)Cc1ccc(O)cc1)[C@@H](C)O)[C@@H](C)O)[C@@H](C)CC)[C@@H](C)CC)C(=O)N[C@@H](CCC(=O)O)C(=O)NCC(=O)NCC(=O)N1CCC[C@H]1C(=O)N[C@@H](CO)C(=O)N[C@@H](CO)C(=O)NCC(=O)N[C@@H](C)C(=O)N1CCC[C@H]1C(=O)N1CCC[C@H]1C(=O)N1CCC[C@H]1C(=O)N[C@@H](CO)C(=O)N[C@@H](CCCCNC(=O)COCCOCCNC(=O)CC[C@H](NC(=O)CCCCCCCCCOc1ccc(C(=O)O)cc1)C(=O)O)C(N)=O` [Example 374], for which the Emax in test [1] (HEK293, read-out: hGIPR Emax, % ± SEM, cAMP, 37° C., 0.1% bovine casein and 1.0% human serum albumin, percent of maximal response to GIP(1-42)NH2) is 88.8%; in test [1] (HEK293, read-out: hGIPR Emax, % ± SEM, cAMP, 37° C., 0.1% bovine casein, percent of maximal response to GIP(1-42)NH2, arithmetic mean), 96.2%. In addition, the 50% effective concentration (EC50) was 0.0135 nM in test [1] (hGIPR EC50, nM (SEM, n), 37° C.); > 9950 nM in test [2] (hGCGR EC50, nM (SEM, n), cAMP, 37° C., 0.1% bovine casein (no human serum albumin), geometric mean); > 9950 nM in test [2] (hGCGR EC50, nM (SEM, n), cAMP, 37° C., 0.1% bovine casein and 1.0% human serum albumin, geometric mean (SEM, n)); 0.269 nM in test [3] (hGLP-1R EC50, nM (SEM, n), 37° C., 0.1% bovine casein (no human serum albumin), geometric mean).

As a reminder, the Emax is the maximal effect, on the per cent scale that the assay sets. What is called EC50 is the concentration giving half of the maximal effect.

For the origin of these results see US20230265151A1, “GIP/GLP1 CO-AGONIST COMPOUNDS” (priority 2020, published 2023).
